# Assay results taken from patent EP4458353A1, “ANTICARIOGENIC SYNERGETIC COMPOSITION FOR ORAL CARE” (SkyLab AG, priority 2023, dated 2024).
# Like-named read-outs stand apart in the source and are kept apart here.
# How the values were obtained:
# Streptococcus mutans [1] = assay: Minimum inhibitory concentration (MIC), serial two-fold dilution with resazurin test; format: cell-based; conditions: Streptococcus mutans, S. mutans
# Streptococcus sobrinus [2] = assay: as above; format: cell-based; conditions: Streptococcus sobrinus, S. sobrinus
# Streptococcus mutans [3] = assay: Minimum biofilm inhibitory concentration (MBIC), crystal violet staining; format: cell-based; conditions: S. mutans
# Protocol: (§1) Group of examples No 4 - 6. Anti-biofilm activity of the substance or of the composition of substances was assessed from minimum biofilm inhibitory concentration (MBIC) and from the rate of biofilm formation on hydroxyapatite disks.
# (§2) Reference strains Streptococcus mutans and S. Sobrinus were used as the bacterial models.
# (§3) Example No 4. MBIC as the measure of the substance effect on the bacterial biofilm is equal to minimum concentration inhibiting the biofilm formation or disruption of already formed biofilm during 24 hour incubation.
# (§4) MBIC of individual components of the composition, specifically, naringenin, guava leaf CO2 extract, and enzymes lysozyme and labiase can be determined according to the procedure: • 1) All stages of nutritive medium preparation, preparation and incubation of bacterial cultures in 96-well microtiter plates with the test composition of the substances added into nutritive medium were as described in Example 1. • 2) All controls for the culture growth, for purity of nutritive medium and for solvents were as described in Example 1. • 3) Incubate the plates at 37 °C for 24 ± 4 h without the use the orbital shaker. • 4) Stain the bacterial biofilm accumulated on bottom of the plate wells with crystal violet. For this purpose remove the planktonic culture from the plate wells after 24 h incubation and wash with two portions of phosphate-buffered saline (PBS, pH 7.4) to remove remaining planktonic culture. Then dry the plate for 12-15 hours. Add 100 µL of 0.5% crystal violet solution (Sigma-Aldrich, USA), dissolved in 96% ethanol followed by incubation for 20 minutes. After removal of crystal violet solution from the wells wash the plate with 3-4 portions of PBS. After drying add […] of 96% ethanol into the wells to elute the crystal violet, which has bound to the biofilm. • 5) Shake the plate on the orbital shaker for 2 minutes at 37 °C and then measure optical density (OD) at the wavelength of 550nm using multimodal microplate reader against the blank (the well, where the sterile medium LB was incubated and then exposed to all staining manipulations). Since the serial dilution method with 2-fold dilution steps is used for MBIC determination, the difference between the adjacent dilution is considered as non-significant, and MBIC is defined as the median value calculated for 5 independent biological replicates of the experiment. • 6) The following concentrations were tested: naringenin and guava leaf extract at concentrations 1.6, 0.8, 0.4, 0.2, 0.1, 0.05 mg/mL; lysozyme and labiase at concentrations 4.0, 2.0, 1.0, 0.5, 0.25, 0.125 mg/mL. Well-known antibacterial components were used as controls: chlorohexidine bigluconate at concentrations 64, 32, 16, 8, 4 µg/mL; zinc gluconate at concetrations 5.0, 2.5, 1.25, 0.6, 0.3, 0.15 mg/mL.
# Streptococcus sobrinus [4] = assay: as above; format: cell-based; conditions: S. sobrinus
# Protocol: as §1, §2, §3, §4
# lysozyme = molecular target: T1, lysozyme (Gallus gallus, UniProt P00698); assay: Lysozyme and naringenin compatibility: lysozyme activity by fall of optical density of Micrococcus lysodeicticus cells; format: biochemical; conditions: added to the buffered medium with lysozyme; 30, 60, 120 minutes at 37 degrees
# T1 construct: Lysozyme used in all tests was 99% anhydrous lysozyme hydrochloride isolated from the egg yolks; from tissue; host or cells: eggs ('egg yolks' as printed)
# Protocol: Example ? 8. Assessment of lysozyme and naringenin compatibility Potential impact of naringenin on lysozyme activity was assessed through the measurement of lysozyme activity by the method described in the patent RU2294373C2. To determine the lysozyme activity the optical density values obtained for the control wells are subtracted from the optical density values obtained for the wells, which were incubated in the presence of lysozyme. The bacterial cells Micrococcus lysodeicticus in amount corresponding to the optical density 0.6 are mixed with the equal volume of buffer containing lysozyme, naringenin, guava leaf CO2 extract, while no lysozyme is added into the control well. Then the plate is incubated for 30, 60, 120 minutes at 37 degrees, and the optical density is measured. The fall of optical density indicates the lysozyme activity. Then the final density value is subtracted from the initial density value followed by normalization for incubation time and the enzyme concentration in accordance with the procedure described in RU2294373C2.
# [5] = 24 h at 37 °C, read-out: MIC value in individual replicate Replicate 1
# [6] = 24 h at 37 °C, read-out: MIC value in individual replicate Replicate 2
# [7] = 24 h at 37 °C, read-out: MIC value in individual replicate Replicate 3
# [8] = 24 h at 37 °C, read-out: MIC value in individual replicate Replicate 4
# [9] = 24 h at 37 °C, read-out: MIC value in individual replicate Replicate 5
# [10] = median of 5 replicates, read-out: MIC Median value
# T1 sequence (P00698 19-147): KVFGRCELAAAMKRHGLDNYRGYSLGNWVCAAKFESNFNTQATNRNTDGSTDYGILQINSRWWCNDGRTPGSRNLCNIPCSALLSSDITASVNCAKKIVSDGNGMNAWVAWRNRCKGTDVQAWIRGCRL
smiles,measurement,setting,value
"O=C1C[C@@H](c2ccc(O)cc2)Oc2cc(O)cc(O)c21 [Naringenin, naringenin]",MIC,Streptococcus mutans [1]; [5],> 1600 µg/mL
same,MIC,Streptococcus mutans [1]; [6],> 1600 µg/mL
same,MIC,Streptococcus mutans [1]; [7],800 µg/mL
same,MIC,Streptococcus mutans [1]; [8],400 µg/mL
same,MIC,Streptococcus mutans [1]; [9],800 µg/mL
same,MIC,Streptococcus mutans [1]; [10],800 µg/mL
same,MIC,Streptococcus sobrinus [2]; [5],> 1600 µg/mL
same,MIC,Streptococcus sobrinus [2]; [6],> 1600 µg/mL
same,MIC,Streptococcus sobrinus [2]; [7],> 1600 µg/mL
same,MIC,Streptococcus sobrinus [2]; [8],> 1600 µg/mL
same,MIC,Streptococcus sobrinus [2]; [9],> 1600 µg/mL
same,MIC,Streptococcus sobrinus [2]; [10],> 1600 µg/mL
same,MBIC in indicvdual replicates Replicate 1,Streptococcus mutans [3]; 24 h incubation,0.8 mg/mL
same,MBIC in indicvdual replicates Replicate 2,Streptococcus mutans [3]; 24 h incubation,0.8 mg/mL
same,MBIC in indicvdual replicates Replicate 3,Streptococcus mutans [3]; 24 h incubation,0.8 mg/mL
same,MBIC in indicvdual replicates Replicate 4,Streptococcus mutans [3]; 24 h incubation,0.4 mg/mL
same,MBIC in indicvdual replicates Replicate 5,Streptococcus mutans [3]; 24 h incubation,0.8 mg/mL
same,MBIC Median value,Streptococcus mutans [3]; median of 5 replicates,0.8 mg/mL
same,MBIC in indicvdual replicates Replicate 1,Streptococcus sobrinus [4]; 24 h incubation,>1.6 mg/mL
same,MBIC in indicvdual replicates Replicate 2,Streptococcus sobrinus [4]; 24 h incubation,>1.6 mg/mL
same,MBIC in indicvdual replicates Replicate 3,Streptococcus sobrinus [4]; 24 h incubation,>1.6 mg/mL
same,MBIC in indicvdual replicates Replicate 4,Streptococcus sobrinus [4]; 24 h incubation,>1.6 mg/mL
same,MBIC in indicvdual replicates Replicate 5,Streptococcus sobrinus [4]; 24 h incubation,>1.6 mg/mL
same,MBIC Median value,Streptococcus sobrinus [4]; median of 5 replicates,>1.6 mg/mL
same,effect on lysozyme activity,lysozyme,neither affect lysozyme nor decrease the lysozyme activity
